These are literature values, as cited in patent US6629835B2, “Combinations of diterpene triepoxide lactones and ditepene lactones or triterpenes for synergistic inhibition of cyclooxygenase-2” (MetaProteomics, LLC, priority 2000, dated 2003).

The conditions of this series: gastrointestinal disturbance, nausea and vomiting, hypotension, edema; cited from earlier work.

On to `CC(C)[C@]12O[C@H]1[C@@H]1O[C@]13[C@]1(O[C@H]1C[C@H]1C4=C(CC[C@@]13C)C(=O)OC4)[C@@H]2O` [Triptolide], for which the “Patients showing some type of side effects” value is recorded as “Approximately 28%”.
